These results are taken from patent US20170298209A1, “USE OF A QUINONE COMPOUND IN BUILDING MATERIALS” (Arkion Life Sciences, LLC, priority 2014, published 2017).

Data set [1] in a line: Solubility of the quinone compound in aqueous solution / solvents. In kind it is physicochemical. From the text:
The quinone compound can be applied to the substrate in the form of a solution. The solution can be an aqueous or semi-aqueous solution. The quinone compound can be soluble or semi-soluble in the solution. Depending on the pH of the solution the quinone compound can be soluble or partially soluble. The partially soluble quinone can exist as either suspended crystalline particles, fine particles, colloidal particles, etc. […] This compound can exist in solution as particles, crystals, colloids, etc. In some embodiments, the semi-aqueous or non-aqueous solutions containing suitable particles, crystals, colloids, etc. can be used to achieve penetration of a quinone compound into and under the surface of a substrate.
(§1) A power pole made from southern yellow pine is treated with a sodium salt of 9,10 dihyroxyanthracene (also known as AHQ or anthrahydroquinone) to render the pole resistant to pest and/or fungal damage. The sodium salt of 9,10 dihyroxyanthracene is stable in an oxygen free and high pH environment (e.g., above pH 11). In the high pH solution, the compound has a solubility of around 10% (wt/v). A 10% solution of AHQ is prepared in an aqueous solution having a pH of about 12. The pole is soaked in the bath of 10% AHQ for about 20-30 minutes at 70-80° C. with little or no air exposure. A portion of the AHQ penetrates into the top layer of the pole. The depth of penetration can range from 1 mm to 200 mm.
(§2) After soaking, the pole is transferred to a water tank where the surface would be neutralized. The water having a nominal pH of about 7. Alternatively, the pole is dried in air without rinsing. AHQ is unstable in the presence of air (e.g., oxygen) unless it is maintained in a high pH solution. If exposed to a lower pH or air (e.g., oxygen), the AHQ can be converted to 9,10 anthraquinone (also known as AQ). AQ is insoluble in almost every solvent including water. Therefore, AQ precipitates out of solution and becomes trapped in the top layer of the pole. AQ forms both on the surface and inside the wood fibers of the upper layers of the pole. This outer layer of pole is now both termite and woodpecker proof. Because anthraquinones can be effective fungicides, the pole is now also fungi proof.

The next data set concerns Pileated woodpeckers. The data set can be described thus: Caged Pileated woodpecker trials (two-choice then one-choice test) with treated and untreated utility pole sections. The conditions noted are these: poles treated with AHQ versus untreated poles; FIGS. 2-4. In kind it is in vivo, Pileated woodpecker (Dryocopus pilealus). On the procedure: Overview. A series of caged Pileated woodpecker trials are conducted using power pole segments both untreated and treated with a quinone. The treatment segments contain the quinone compound in a range of concentrations. The quinone compound is also applied by either painting or soaking. The quinone compound is applied in a high pH solution (i.e., in a water soluble form). Thereafter, the segments are treated with a lower pH solution to convert the quinone to a water insoluble form. The bird's preference to nest building excavation for each segment is measured. Both the soaked and painted segments show lower incidence of nesting evacuation. […]
The initial placement of the treated and the untreated poles in each enclosure was randomly determined. […] At the beginning of each test day, starting on day 2 (0800), woodpecker damage to each pole was measured by collecting and weighing the wood chips that were removed. […] The camera recorded woodpecker activity on poles for during the first two hours of each day during the test period. […]
The weight of wood chips removed by Pileated woodpeckers follow a three-factor repeated measures design, where observations are repeated on each bird for all three factors: treatment (chemical) time (pre and post-treatment), and pole (control and treated)). All data was analyzed as mixed liner models. […]

Data set [2] is described as follows: Stability of AHQ towards air (oxygen) and pH. In kind it is physicochemical. As to the method:
as §1
as §2, with “This outer layer of pole is now both termite and woodpecker proof. Because anthraquinones can be effective fungicides, the pole is now also fungi proof.” left out

As for `Oc1c2ccccc2c(O)c2ccccc12` [9,10-anthrahydroquinone], the “solubility in aqueous solutions” value in data set [1] (slightly basic or neutral pH values) is given as “only slightly soluble or insoluble”.
Take `[Na+].[Na+].[O-]c1c2ccccc2c([O-])c2ccccc12` [AHQ, sodium salt of 9,10 dihyroxyanthracene]: in the data set on Pileated woodpeckers, the “weight of wood chips removed from poles” value is “surprisingly less than the weight of wood chips removed from untreated poles”. The stability result in data set [2] (oxygen free and high pH environment (e.g., above pH 11)) is “stable”; in data set [2] (presence of air (e.g., oxygen), unless maintained in a high pH solution) it was “unstable”. Also, the “solubility in aqueous solutions” value in data set [1] (high pH (e.g., pH 11 or more)) is “readily soluble”. For the same compound, in data set [1] (in the high pH solution (e.g., above pH 11)), the solubility entry is reported as “around 10 % (wt/v)”.
With `O=C1c2ccccc2C(=O)c2ccccc21` [AQ, 9,10 anthraquinone], the solubility in solvents result in data set [1] is listed as “insoluble”.
